Laboratory results published in EPA's ToxValDB 9.5 (doi:10.2903/j.efsa.2021.6237).

Experiments:
[1] = tested on: Anas platyrhynchos; conditions: short-term; oral; feed; mortality
[2] = tested on: Apis mellifera; conditions: acute, mortality
[3] = tested on: Canidae; conditions: subchronic; duration: 90 days; oral; Dog Other; clinical chemistry
[4] = tested on: Colinus virginianus; conditions: acute; oral; mortality
[5] = tested on: Daphnia magna; conditions: chronic/long-term; duration: 21 days; reproduction
[6] = tested on: Lepomis macrochirus; conditions: acute; duration: 96 hours; mortality
[7] = tested on: Oncorhynchus mykiss; conditions: chronic/long-term; duration: 60 days; other
[8] = tested on: Rattus norvegicus
[9] = tested on: Tagia sp.; conditions: chronic/long-term; duration: 56 days; reproduction

SMILES: COP(=S)(OC)SCN1C(=O)c2ccccc2C1=O [Phosmet]
- LD50 [1]: > 2320 mg/kg-day
- LD50 ([2]; dermal): 0.22 µg/piece
- LD50 ([2]; oral, unspecified): 0.302 µg/piece
- NOAEL [3]: 1.88 mg/kg-day
- LD50 [4]: 56.2 mg/kg-day
- NOEC [5]: 0.78 µg/L
- LD50 [6]: 19.7 µg/L
- NOEC [7]: 3.2 µg/L
- LD50 ([8]; acute, oral, mortality): 113 mg/kg-day
- NOAEL ([8]; chronic, duration: 2 years, clinical chemistry): 1.8 mg/kg-day
- NOAEL ([8]; developmental, development): 10 mg/kg-day
- NOAEL ([8]; reproduction developmental): 1 mg/kg-day
- NOAEL ([8]; subchronic, duration: 90 days, oral, clinical chemistry): 1.88 mg/kg-day
- NOEC [9]: 2.96 mg/kg
